Measurements reported in patent US20230026969A1, “Oligopeptide, Testing Kit Thereof And Medical Composition Thereof” (China Medical University, priority 2019, published 2023).

Legend:
OA cartilage [1] = experiment: Immunostaining of human OA tissue sections with phage clones: cartilage; assay type: binding; conditions: for binding activity to cartilage (DAB intensity): HRP-labeled phage clones
Excerpt: (§1) To examine localization of the targeting phages bound to articular tissues, human OA cartilage specimens were used for examination. Paraffin-embedded human OA tissue, synovium, and meniscus sections were retrieved from specimens of human OA surgical treatment under the approval of the Institutional Review Board of China Medical University Hospital (IRB no. CMUH108-REC1-046 and T-CMU-23728). Written informed consent was obtained, and all human tissue samples were coded for anonymity. All sections were dried, deparaffinized and rehydrated by standard protocols, and subsequently incubated with C5-87, C5-66, C5-83, C5-91, C5-24, E5-8, and C5-46 phage clones, or the control phage (5×10^8 pfu/μl). After washing, the sections were treated with anti-M13 mouse mAb (GE Healthcare) for 1 hour at room temperature. Following several washing steps, a biotin-free super sensitive polymer-HRP detection system (Biogenex, Fremont, Calif., USA) was used to detect immunoreactivity. The slides were lightly counterstained with hematoxylin, mounted with Aquatex (Merck, Darmstadt, Germany), and examined by light microscopy.

meniscus = experiment: Immunostaining of human OA tissue sections with phage clones: meniscus; assay type: binding; conditions: HRP-labeled phage clones
Excerpt: as §1

synovium = experiment: Immunostaining of human OA tissue sections with phage clones: synovium; assay type: binding; conditions: HRP-labeled phage clones
Excerpt: as §1

OA cartilage [2] = experiment: Intravital two-photon imaging of rhodamine-labeled peptides injected into rat joints; assay type: in vivo; conditions: for rhodamine fluorescence (red dots) in cartilage: intra-articular, two-photon microscopy
Method: The OA in rat model was established as previous described with slightly modification. In brief, the male SD rats≅300 grams in weight were used in this study. All animal experiments were approved by the China Medical University Committee for the Use and Care of Animals. Rats were kept under standard laboratory conditions (temperature 24° C., 12 h light-dark cycle), fed standard diet and drank tap water. Rats were anesthetized with 2.5% isofluorane (Abott, USA) in 70 ml/min flow rate before every injection. Rat joint OA was induced in the right knees in each group by injecting 0.2 ml of 4% papain solution (Sigma-Aldrich, USA) with 0.1 ml of 0.03 M cysteine (Sigma-Aldrich, USA) as activator. Same amount of saline was injected into the left knees in each group. Injection was repeated on the fourth and seventh days, respectively, and two weeks after the last papain injection, rat knees were removed for histological analysis to confirm the formation of OA. The established OA model in rats was further used in the following experiments for intraarticular injection.
The rhodamine-labeled C5-24 and scrambled peptides were separately injected into rat joints without (control) or with enzyme-induced OA. The C5-24 and scrambled peptides were chemically synthesized as accordingly (ABI, USA), modified with Biotin-PEG2-Iodoacetyl bridge linker (Thermo Fisher Scientific, USA) in HEPES buffer pH 8.0 through click reaction, further linked with avidin labeled rhodamine (Jacksonlmmuno, USA) and subjected to dialysis in ddH2O in M.W. 4K cut-off to remove the unlabeled rhodamine, further lyophilized and stored in −20° C. Aliquots of 1 μg rhodamine-labeled peptides in 40 μl PBS were used for intraarticular injection with using 30 G syringes.
Rat Knees were removed at 1-day post-injection, and both femoral condyles and tibias were cleaned thoroughly, immersed in PBS and sophisticatedly attached on 3.5 cm dish for 2-photon microscopic observation. The microscope system was operated using a near-infrared femtosecond laser (Mira 900, Coherent, USA) at the central wavelength of 810 nm, 76 MHz pulse repetition rate, and 200 fs pulse width for imaging. […] Thus, the wavelength of SHG from collagen fibers is 405 nm, while the TPEF from collagen, elastin, FAD, and NADH is approximately ranging from 450 to 650 nm. All images were obtained by a laser scanning unit (Fluoview 300, Olympus, Japan), a pair of two objective lenses for both lasers focusing and collection of photons (UPlanSApo 20×/0.75, Olympus, Japan), and two photomultiplier tubes respectively for SHG and TPEF detection (R3896, Hamamatsu, Japan). SHG and TPEF were filtered from the intense excitation laser background by a combination of band-pass filter (FF01-405/10, Semrock, USA) and color glass (BG39, Schott, Germany). And, then splitted by a dichroic mirror (FF435-Di01, Semrock, USA) and forward detected. […] Only the extinction ratio of linear polarization larger than 50:1 and the ellipticity of circular polarization (Imax/Imin) less than 1.1 after the focusing objective lens can then be used for the following two-photon imaging. The acquired images were mainly processed and analyzed with ImageJ/FiJi software (National Institutes of Health, Bethesda, Md., USA).

hPi-GL = experiment: Immunocytofluorescent staining of phage clones on hPi-GL chondrocyte cell line; assay type: cell-based, human; conditions: phage clones on fixed hPi-GL cells
Method: For examination of those phage clones, slide-cultured hPi-GL cells were fixed with 4% paraformaldehyde in PBS at room temperature for 15 mins, washed with PBS and permeabilized with 0.1% Triton X-100 at room temperature for 30 mins, blocked for nonspecific binding with 1% BSA/PBST. The slide-cultured hPi-GL cells were separately incubated with 4×10^8 pfu, 8×10^8 pfu, and […] selected phage clones at 4° C. for 1 hour. After removing the unbound phages by washing, the cells were incubated with anti-M13 mouse mAb (GE Healthcare, Milwaukee, Wis., USA) as the primary antibody and R-Phycoerythrin-AffiniPure F(ab′)2 fragment goat anti-mouse IgG (Jackson ImmunoResearch Inc.) as the secondary antibody at room temperature for 1 hour, respectively. Then, washed with PBST, and counterstained with Hoechst 33258 (1 μg/ml; Sigma-Aldrich) at room temperature for 10 mins. The cells were analyzed for phage binding and localization by fluorescence using confocal microscopy (Zeiss LSM 700).

[3] = rhodamine-labeled peptide, OA cartilage
[4] = rhodamine-labeled peptide, control cartilage

| Substance | specificity for targeting the territorial region of OA cartilage (OA cartilage [1]) | binding activity to cartilage (DAB intensity) (OA cartilage [1]) | binding activity to the meniscus (DAB intensity) (meniscus) | binding activity to the synovium (DAB intensity) (synovium) | overall fluorescent peptides binding area, OA vs control cartilage (OA cartilage [2]; all slices, FIG. 1b) | depth reached in the OA cartilage (z-axial plane) (OA cartilage [2]; [3]) | rhodamine fluorescence (red dots) in cartilage (OA cartilage [2]; [3]) | rhodamine fluorescence (red dots) in cartilage (OA cartilage [2]; [4]) | binding to hPi-GL (immunocytofluorescent staining, M13-PE) (hPi-GL) | ability to bind to OA cartilage (OA cartilage [2]; scrambled control peptide) |
| --- | --- | --- | --- | --- | --- | --- | --- | --- | --- | --- |
| D L Q Y W Y P I W D T H (DLQYWYPIWDTH; binding to collagen XII; DOMAIN (5)..(9); DOMAIN (10)..(12)) [C5-24, 1, from phage display] | best specificity | superior binding activity | no binding activity | no binding activity | significant difference | at least 50 μm | red dots were observed | sparse red dots | specific and remarkable binding |  |
| D A Y W H P V W V H D P (DAYWHPVWVHDP; binding to collagen XII; DOMAIN (4)..(8)) [C5-91, 2, from phage display] |  | superior binding activity | no binding activity | no binding activity |  |  |  |  | specific and remarkable binding |  |
| DYLWQYPDITWH [scrambled peptide, contains all the same amino acids as the original peptide but in new random order, reference compound] |  |  |  |  |  |  | sparse red dots | sparse red dots |  | not able to bind to OA cartilage |
